Results from paper PMC9403987 (Frontiers in Oncology, 2022).

Assays:
[1] = system: Du4475; experiment: Cell proliferation assay; type: cell-based, Homo sapiens; settings: Du4475, breast carcinoma, 72 hours
Experimental: (§1) To quantify cell proliferation, either the nuclei of live cells were counted following staining with 4’,6-diamidino-2-phenylindole (DAPI; Sigma-Aldrich, Burlington, MA, USA), or metabolically active cells were detected using a CellTiter-Glo assay (Promega Corporation, Madison, WI, USA). Cells from a range of human and mammalian tumor cell lines (American Type Culture Collection, Manassas, VA, USA) were seeded at 4000 cells per well in 100 μL of culture medium in a 96-well plate and incubated overnight at 37°C with 5% CO2. […] In the DAPI staining method, cells were washed using 1× phosphate-buffered saline (PBS; Gibco Thermo Fisher Scientific, Waltham, MA, USA), fixed with 4% formaldehyde, permeabilized with 0.2% Triton X-100 (Sigma-Aldrich), washed again, and stained with 1 μg/mL DAPI to visualize cell nuclei. Cells were washed with 1× PBS three times, and 100 μL 1× PBS was added to each well. Plates were scanned using an IN Cell Analyzer 2200 (GE Healthcare Life Sciences, Chicago, IL, USA) and the number of cells per well was recorded. In the CellTiter-Glo assay, 60 μL of CellTiter-Glo luminescent solution was added to each well after incubation with the test compounds, and the assay plate was scanned using a Tecan Infinite M1000 PRO microplate reader (Tecan Group AG, Männedorf, Switzerland) to record luminescent signals.

[2] = system: MCF-10A; experiment: Cell proliferation assay; type: cell-based, Homo sapiens; settings: breast, non-malignant mammary epithelial, 72 hours
Experimental: as §1

[3] = system: MHCC97H; experiment: Cell proliferation assay; type: cell-based, Homo sapiens; settings: liver, hepatocellular carcinoma, 72 hours
Experimental: as §1

[4] = system: MHCC97; experiment: Cell proliferation assay; type: cell-based, Homo sapiens; settings: MHCC97, liver, hepatocellular carcinoma, 72 hours
Experimental: as §1

[5] = system: NCI-H1299; experiment: Cell proliferation assay; type: cell-based, Homo sapiens; settings: NCI-H1299, lung, NSCLC, 72 hours
Experimental: as §1

[6] = system: NCI-H1703; experiment: Cell proliferation assay; type: cell-based, Homo sapiens; settings: NCI-H1703, lung, NSCLC, 72 hours
Experimental: as §1

[7] = system: SNU-886; experiment: Cell proliferation assay; type: cell-based, Homo sapiens; settings: SNU-886, liver, hepatocellular carcinoma, 72 hours
Experimental: as §1

[8] = system: SW1088; experiment: Cell proliferation assay; type: cell-based, Homo sapiens; settings: SW1088, brain, grade II astrocytoma, 72 hours
Experimental: as §1

[9] = system: BRL-3a; experiment: Cell proliferation assay; type: cell-based, Rattus norvegicus; settings: liver, normal, 72 hours
Experimental: as §1

[10] = system: BN2289; experiment: Subcutaneous BN2289 glioblastoma xenograft; type: in vivo, BALB/c nude mice; settings: 28 days, measured day 21
Experimental: (§2) The efficacy of GLR2007 was evaluated in human GBM and breast cancer orthotopic cell-line-derived xenografts in NOD/SCID mice (Shanghai Lingchang Biotechnology Co. Ltd, Shanghai, China) and BALB/c nude mice (Shanghai Sino-British SIPPR/BK Laboratory Animal Co. Ltd, Shanghai, China), and human lung, colorectal, and liver cancer subcutaneous cell-line-derived xenografts in BALB/c nude mice (Nanjing University National Resource Center, Nanjing, China, or Beijing Anikeeper Biotech Co., Beijing, China). Mice were maintained in humidity- and temperature-controlled conditions with food and water available ad libitum. For subcutaneous models, female BALB/c nude mice were inoculated at 4–8 weeks old with 3×10^6–1×10^7 tumor cells (see Table 1 for xenograft model cell types) in the right flank for tumor development. Randomization was performed when the mean tumor volume reached 118–171 mm^3.

[11] = system: U87-luc tumor cells; experiment: Orthotopic U87-luc glioblastoma xenograft; type: in vivo, BALB/c nude mice; settings: for TGI (%) / Increase in median survival time (%): 42 days; for TGI (%): measured day 21, bioluminescence; for Increase in median survival time (%): versus vehicle group
Experimental: as §2, with “libitum.” for “libitum. For subcutaneous models, female BALB/c nude mice were inoculated at 4–8 weeks old with 3×10^6–1×10^7 tumor cells (see Table 1 for xenograft model cell types) in the right flank for tumor development. Randomization was performed when the mean tumor volume reached 118–171 mm^3.”
In a GBM orthotopic xenograft study, female BALB/c nude mice were inoculated intracranially at 6–8 weeks old with 3×10^5 U87-luc tumor cells plus Matrigel (Corning Life Sciences, Tewksbury, MA, USA) in a 4:1 ratio in PBS at the right frontal lobe. Tumor growth was quantified using intraperitoneal administration of 150 mg/kg luciferin to anesthetized mice, and tumor bioluminescence was measured using an IVIS Lumina II imaging system (PerkinElmer Inc.). In one study, mice were randomized at day 6 after tumor implantation (mean bioluminescence of 2.81×10^7 photons/sec), and in the other, mice were randomized at day 14 or day 15 (mean bioluminescence of 7.49×10^6 photons/sec).
Statistical analysis of differences in mean tumor volume among groups was conducted via an independent samples t-test or one-way analysis of variance (ANOVA; two-sided Dunnett’s test). For comparison among three or more groups, a one-way ANOVA was performed. Multiple comparison procedures were applied after ANOVA when significant F-statistics (ratio of treatment variance to error variance) were obtained. Comparisons between groups were carried out using the Games test. P<0.05 was considered to be statistically significant. Survival times were analyzed using the Kaplan–Meier method, with curves constructed for each group and the log-rank (Mantel–Cox) test used to compare survival curves between groups. Body weight change was calculated based on the weight on the first day of dosing.

[12] = system: MCF-7 tumor cells; experiment: Orthotopic MCF-7 breast cancer xenograft; type: in vivo, NOD/SCID mice
Experimental: as §2, with “libitum.” for “libitum. For subcutaneous models, female BALB/c nude mice were inoculated at 4–8 weeks old with 3×10^6–1×10^7 tumor cells (see Table 1 for xenograft model cell types) in the right flank for tumor development. Randomization was performed when the mean tumor volume reached 118–171 mm^3.”
In two breast cancer orthotopic xenograft models, female NOD/SCID mice were subcutaneously implanted with an estrogen pellet (17β-estradiol; Innovative Research of America, Sarasota, FL, USA) one day before tumor inoculation. Mice were inoculated at 6–7 weeks old with 2×10^7 MCF-7 tumor cells plus Matrigel in a 1:1 ratio in PBS at a mammary fat pad or in the right flank. Randomization was performed when the mean tumor volume reached 135–138 mm^3.

[13] = system: NCI-H1975; experiment: Subcutaneous NCI-H1975 non-small cell lung cancer xenograft; type: in vivo, BALB/c nude mice; settings: 22 days, measured day 16
Experimental: as §2

[14] = system: COLO 205; experiment: Subcutaneous COLO 205 colorectal cancer xenograft; type: in vivo, BALB/c nude mice; settings: 26 days, measured day 25
Experimental: as §2

[15] = 25 mg/kg daily oral, 21 days, measured day 21, 8 mice
[16] = 25 mg/kg daily oral, 28 days, measured day 25, 10 mice

Work on `CCN1CCN(Cc2ccc(Nc3ncc(F)c(-c4cc(F)c5nc(C)n(C(C)C)c5c4)n3)nc2)CC1` [Abemaciclib, abemaciclib, reference compound] yielded an IC50 ([1]; Homo sapiens, DU-4475) of 10000 nM, an IC50 ([2]; Homo sapiens) of 1770 nM and an IC50 ([3]; Homo sapiens) of 137 nM. For the same compound, the IC50 ([4]; Homo sapiens) was 1100 nM, the IC50 ([5]; Homo sapiens) was 463 nM and the IC50 ([6]; Homo sapiens) was 93 nM. The IC50 ([7]; Homo sapiens) was 25 nM, the IC50 ([8]; Homo sapiens) was 471 nM and the IC50 ([9]; Rattus norvegicus) was 10000 nM. The “TGI (%)” value ([10]; 25 mg/kg daily oral) was 24.9%, the “TGI (%)” value ([11]; 150 mg/kg daily oral) was 79.0% and the “Increase in median survival time (%)” value ([11]; 150 mg/kg daily oral) was 54.4%. The “TGI (%)” value [12, 15] was 33.0%, the “TGI (%)” value [12, 16] was 48.6% and the “TGI (%)” value ([13]; 25 mg/kg daily oral) was 6.9%. The “TGI (%)” value ([14]; 25 mg/kg daily oral) was 57.7%.
For `CC1=Nc2c(F)cc(-c3nc(Nc4ccc(C5CCN(C)CC5)cn4)ncc3F)cc2C12CCCC2` [GLR2007], the IC50 [1] was 2040 nM, the IC50 [2] was 2730 nM and the IC50 [3] was 66 nM. The IC50 [4] was 353 nM, the IC50 [5] was 564 nM and the IC50 [6] was 3 nM. It also gave an IC50 [7] of 6 nM, an IC50 [8] of 143 nM and an IC50 [9] of 1870 nM. For the same compound, the “TGI (%)” value ([10]; 5 mg/kg daily oral) was 4.9%, the “TGI (%)” value ([10]; 25 mg/kg daily oral) was 39.4% and the “TGI (%)” value ([10]; 50 mg/kg daily oral) was 56.4%. For the same compound, the “TGI (%)” value ([11]; 12.5 mg/kg daily oral) was 86.3%, the “Increase in median survival time (%)” value ([11]; 12.5 mg/kg daily oral) was 50.0% and the “Weight loss, GLR2007 versus abemaciclib groups” value ([11]; orthotopic U87-luc xenograft mice treated for 42 days) was “comparable”. The “TGI (%)” value ([12]; 10 mg/kg daily oral, 21 days, measured day 21, 8 mice) was 43.5%, the “TGI (%)” value [12, 15] was 37.4% and the “TGI (%)” value [12, 16] was 61.4%. For the same compound, the “TGI (%)” value ([12]; 50 mg/kg daily oral, 21 days, measured day 21, 8 mice) was 49.6%, the “TGI (%)” value ([13]; 10 mg/kg daily oral) was 27.6% and the “TGI (%)” value ([13]; 25 mg/kg daily oral) was 50.0%. For the same compound, the “TGI (%)” value ([14]; 5 mg/kg daily oral) was 42.6% and the “TGI (%)” value ([14]; 25 mg/kg daily oral) was 72.2%.
